Like-named read-outs stand apart in the source and are kept apart here. Where no end group is shown, it is not given here.
How the values were obtained:
Format in all cases: cell-based, human
A549 cells [1] = assay: Epic DMR agonist mode (primary profile, target panning) in A549 cells; conditions: for ligand-induced DMR signal (second ligand panel): FIG. 8: 40 μM pinacidil, 250 μg/ml poly (I:C), 8 μM PMA, 16 μM forskolin
Source text: (§1) Epic® wavelength interrogation system (Corning Inc., Corning, N.Y.) was used for whole cell sensing. This system consists of a temperature-control unit, an optical detection unit, and an on-board liquid handling unit with robotics. The detection unit is centered on integrated fiber optics, and enables kinetic measures of cellular responses with a time interval of ±15 sec.
(§2) For biosensor cellular assays, molecule solutions were made by diluting the stored concentrated solutions with the HBSS (1× Hanks balanced salt solution, plus 20 mM Hepes, pH 7.1), and transferred into a 384 well polypropylene molecule storage plate to prepare a molecule source plate. Both molecule and marker source plates were made separately when a two-step assay was performed. In parallel, the cells were washed twice with the HBSS and maintained in 30 μl of the HBSS to prepare a cell assay plate. Both the cell assay plate and the molecule and marker source plate(s) were then incubated in the hotel of the reader system. After ˜1 hr of incubation the baseline wavelengths of all biosensors in the cell assay microplate were recorded and normalized to zero. Afterwards, a 2 to 10 minute continuous recording was carried out to establish a baseline, and to ensure that the cells reached a steady state. Cellular responses were then triggered by pipetting 10 μl of the marker solutions into the cell assay plate using the on-board liquid handler.
First, a panel of ligands targeting GPCRs, each at 10 μM concentration, was chosen, and examined their actions on the A549 cells using DMR measurements with the Epic® system. The ligand panel included the four P2Y agonists ADP, […], UTP and UDP, the adenosine receptor agonist adenosine, the calcium sensing receptor agonist spermine, the histamine receptor agonist histamine, the adrenergic receptor agonist epinephrine, the free fatty acid receptor agonist elaidic acid, the lipoxin receptor agonist lipoxin A4, the bradykinin receptor agonist bradykinin, the adrenodullin receptor agonist adrenodullin, the PAR1 agonist SFLLR-amide, the angiotensin receptor agonist angiotensin, the neuropeptide Y receptor agonist neuropeptide Y, and the PAR2 agonist SLIGKV-amide.
Next, a second ligand panel was chosen, and examined their actions on the A549 cells using DMR measures with the Epic® system. The panel included the protein kinase C activator PMA, the endogenous KATP ion channel activator pinacidil, the adenylyl cyclase activator forskolin, and endogenous Toll-like receptor (TLR) activator poly(I:C).
A DMR index was generated for four ligand molecules. Quiescent A431 and proliferating A549 cells were separately exposed to the ligand molecules for about 1 hr to generate their primary profiles, followed by stimulation with each marker at a fixed concentration (as mentioned in FIGS. 7 and 8) for another 1 hr or so to generate secondary profiles of the molecule against the panels of markers in both types of cells. Next, one or more specific DMR parameters were chosen as a readout for plotting the DMR index of the molecule. For the pinacidil DMR response in A549, the amplitude of the N-DMR (i.e., the amplitude 30 min after stimulation) was chosen. For the poly(I:C) DMR response in A549, the amplitude of the late DMR (i.e., the amplitude 50 min after stimulation) was chosen. For the PMA response in A549, the late DMR amplitude (i.e., the amplitude 50 min after stimulation) was chosen. For the SLIGKV-amide DMR response in A549, the P-DMR amplitude (i.e., the amplitude 20 min after stimulation) was chosen. For the forskolin response in A549 cells, the P-DMR amplitude (i.e., the amplitude 50 min after stimulation) was chosen. For the histamine response in A549, both the early DMR amplitude (i.e., amplitude 10 min after stimulation) and the late response (i.e., the amplitude 30 min after stimulation) were chosen. For the epinephrine response in A431, the P-DMR amplitude (i.e., the amplitude 50 min after stimulation) was chosen.

quiescent A431 cells = assay: Epic label-free DMR two-step assay, antagonist mode: modulation of marker-induced DMR signals in quiescent A431 cells
Description: (§3) Cells were typically grown using ˜1 to 2×10^4 cells per well at passage 3 to 15 suspended in 50 μl of the corresponding culture medium in the biosensor microplate, and were cultured at 37° C. under air/5% CO2 for ˜1 day. Except for A431, which was subject to ˜20 hr starvation through continuous culture in the serum-free DMEM, the other cell types were directly assayed without starvation. The confluency for all cells at the time of assays was ˜95% to 100%.
as §1, §2
To study the influence of molecules on a marker-induced response, a second stimulation with the marker at a fixed dose (typically at EC80 or EC100) was applied. The resonant wavelengths of all biosensors in the microplate were normalized again to establish a second baseline, right before the second stimulation. The two stimulations were usually separated by ˜1 hr. All studies were carried out at a controlled temperature (28° C.). At least two independent sets of experiments, each with at least three replicates, were performed. […]
A first panel of markers was contacted with quiescent A431 cells at concentrations close to each of the marker's EC80 or EC100, and DMR measurements were obtained with and EPIC® system. This panel of markers was selected from a library of markers identified in A431 cells using Epic® cellular assays. This panel included epidermal growth factor (EGF), epinephrine, nicotinic acid, and histamine. Each of these markers leads to a wide array of cell signaling. […] Each DMR signal represents an averaged response of 4 replicates.

A549 cells [2] = assay: Epic label-free DMR two-step assay, antagonist mode: modulation of marker-induced DMR signals in A549 cells
Description: as §3, §1, §2
To study the influence of molecules on a marker-induced response, a second stimulation with the marker at a fixed dose (typically at EC80 or EC100) was applied. The resonant wavelengths of all biosensors in the microplate were normalized again to establish a second baseline, right before the second stimulation. The two stimulations were usually separated by ˜1 hr. All studies were carried out at a controlled temperature (28° C.). At least two independent sets of experiments, each with at least three replicates, were performed.
A second panel of markers was contacted with A549 cells at concentrations close to each of the marker's EC80 or EC100, and DMR measurements were obtained with and EPIC® system. This panel included poly(I:C), SLIGKV-amide, pinacidil, PMA, histamine, and forskolin. Each of these markers also leads to a wide array of cell signaling. Using Epic® cellular assays in conjunction with chemical biology and cell biology approach similar to the EGFR DMR mentioned above, we have determined the pathway(s) and network interaction(s) that is accounted for each marker-induced DMR signal in A549 cells. The main observations are summarized below. Poly(I:C) is an agonist for endogenous Toll-like receptor(s) in A549, whose activation leads to IKK pathway and AKT pathway. SLIGKV-amide is an agonist for endogenous protease activated receptor subtype 2 (PAR2) in A549, whose activation leads to Gq-, Gi- and G12/13-mediated signaling. Pinacidil is an opener for endogenous ATP-sensitive potassium (KATP) ion channel in A549, whose activation leads to Rho- and JAK-mediated signaling. PMA is an activator for protein kinase C (PKC), whose activation leads to PKC pathway and degranulation. Histamine is a natural agonist for endogenous histamine receptors (dominantly H1R, and possibly H3R), whose activation leads to dual signaling, possibly through Gq and Gi mediated signaling in A549. Forskolin is an activator for adenylyl cyclases, whose activation leads to cAMP-PKA pathway in A549. […] Each DMR signal represents an averaged response of 4 replicates. […]

[3] = A549, each ligand at 10 μM, FIGS. 3A and 3B
[4] = quiescent A431, 32 nM EGF, ligand 10 μM, about 1 hr pretreatment
[5] = A431, ~1 hr pretreatment with the molecule
[6] = quiescent A431, 10 μM, score scaled from percent modulation (10% = 1)
[7] = 10 μM, score scaled from percent modulation (10% = 1)
[8] = ~1 hr pretreatment with the molecule

Nc1ncnc2c1ncn2[C@@H]1O[C@H](COP(=O)(O)OP(=O)(O)O)[C@@H](O)[C@H]1O [ADP]
ligand-induced DMR signal (GPCR ligand panel) (A549 cells [1]; [3]): robust DMR signals

COc1cc2ncnc(Nc3cccc(Cl)c3)c2cc1OC [AG1478]
effect on the EGF response / DMR signal induced by EGF (in words) (quiescent A431 cells; [4]): almost completely blocked

Nc1ncnc2c1ncn2[C@@H]1O[C@H](COP(=O)(O)OP(=O)(O)OP(=O)(O)O)[C@@H](O)[C@H]1O [AT]
ligand-induced DMR signal (GPCR ligand panel) (A549 cells [1]; [3]): robust DMR signals

C#Cc1cccc(Nc2ncnc3cc(OC)c(OC)cc23)c1 [BML-265]
effect on the EGF response / DMR signal induced by EGF (in words) (quiescent A431 cells; [4]): almost completely blocked

CNCCNS(=O)(=O)c1cccc2cnccc12 [H-8]
effect on the epinephrine response (in words) (quiescent A431 cells; [5]): less effective at attenuating | effect on the histamine response (in words) (quiescent A431 cells; [5]): less effective at attenuating | modulation index score, EGF (N-DMR) (quiescent A431 cells; [6]): −2 | modulation index score, EGF (P-DMR) (quiescent A431 cells; [6]): 0.3 | modulation index score, epinephrine (quiescent A431 cells; [6]): −1.6 | modulation index score, histamine (quiescent A431 cells; [6]): 1.6 | modulation index score, nicotinic acid (quiescent A431 cells; [6]): 1 | modulation index score, PMA (A549 cells [2]; [7]): 2.2 | modulation index score, SLIGKV-amide (A549 cells [2]; [7]): 3.2 | modulation index score, forskolin (A549 cells [2]; [7]): 2 | modulation index score, histamine (early P-DMR) (A549 cells [2]; [7]): 3.8 | modulation index score, histamine (late P-DMR) (A549 cells [2]; [7]): 6.5 | modulation index score, pinacidil (A549 cells [2]; [7]): −7.2 | modulation index score, poly(I:C) (A549 cells [2]; [7]): 1.8

O=S(=O)(c1cccc2cnccc12)N1CCCNCC1 [HA1077]
primary profile of the molecule (DMR signal triggered) (A549 cells [1]; A549, 10 μM, about 1 hr): N-DMR signal | modulation of the PMA-induced DMR response (A549 cells [2]; molecule 10 μM, 8 μM PMA, late DMR amplitude 50 min after stimulation): +36% | modulation of the SLIGKV-amide-induced DMR response (A549 cells [2]; molecule 10 μM, 8 μM SLIGKV-amide, P-DMR amplitude 20 min after stimulation): +22% | modulation of the histamine-induced DMR response (early P-DMR) (A549 cells [2]; molecule 10 μM, 10 μM histamine, amplitude 10 min after stimulation): +26% | modulation of the histamine-induced DMR response (late P-DMR) (A549 cells [2]; molecule 10 μM, 10 μM histamine, amplitude 30 min after stimulation): +55% | modulation of the forskolin-induced DMR response (A549 cells [2]; molecule 10 μM, 16 μM forskolin, P-DMR amplitude 50 min after stimulation): +18% | modulation of the poly(I:C)-induced DMR response (A549 cells [2]; molecule 10 μM, 250 μg/ml poly(I:C), late DMR amplitude 50 min after stimulation): +18% | effect on the PMA response (in words) (A549 cells [2]; [8]): significantly potentiated | effect on the histamine response (in words) (A549 cells [2]; [8]): significantly potentiated | effect on the pinacidil response (in words) (A549 cells [2]; [8]): almost completely attenuated

CCCCCCCCCCCCCC(=O)O[C@@H]1[C@@H](C)[C@@]2(O)[C@@H](C=C(CO)C[C@]3(O)C(=O)C(C)=C[C@@H]23)[C@@H]2C(C)(C)[C@]12OC(C)=O [PMA, Phorbol 12-myristate 13-acetate]
ligand-induced DMR signal (second ligand panel) (A549 cells [1]; A549): robust DMR signals

N#CC(=C(/N)Sc1ccccc1N)/C(C#N)=C(\N)Sc1ccccc1N [U0126]
effect on the N-DMR of the EGF DMR signal (in words) (quiescent A431 cells): significantly and selectively attenuated | effect on the RP-DMR of the EGF DMR signal (in words) (quiescent A431 cells): significantly and selectively attenuated

O=c1ccn([C@@H]2O[C@H](COP(=O)(O)OP(=O)(O)O)[C@@H](O)[C@H]2O)c(=O)[nH]1 [UDP]
ligand-induced DMR signal (GPCR ligand panel) (A549 cells [1]; [3]): robust DMR signals

O=c1ccn([C@@H]2O[C@H](COP(=O)(O)OP(=O)(O)OP(=O)(O)O)[C@@H](O)[C@H]2O)c(=O)[nH]1 [UTP]
ligand-induced DMR signal (GPCR ligand panel) (A549 cells [1]; [3]): robust DMR signals

Nc1ncnc2c1ncn2[C@@H]1O[C@H](CO)[C@@H](O)[C@H]1O [adenosine]
ligand-induced DMR signal (GPCR ligand panel) (A549 cells [1]; [3]): robust DMR signals

CCCCCCCC/C=C/CCCCCCCC(=O)O [elaidic acid]
ligand-induced DMR signal (GPCR ligand panel) (A549 cells [1]; [3]): robust DMR signals

CNC[C@H](O)c1ccc(O)c(O)c1 [epinephrine]
ligand-induced DMR signal (GPCR ligand panel) (A549 cells [1]): robust DMR signals

NCCc1c[nH]cn1 [histamine]
ligand-induced DMR signal (GPCR ligand panel) (A549 cells [1]; [3]): robust DMR signals

CCCCC[C@H](O)/C=C/C=C\C=C\C=C\[C@@H](O)[C@@H](O)CCCC(=O)O [lipoxin A4]
ligand-induced DMR signal (GPCR ligand panel) (A549 cells [1]; [3]): robust DMR signals

CC(N/C(=N\C#N)Nc1ccncc1)C(C)(C)C (stereo not drawn) [pinacidil]
ligand-induced DMR signal (second ligand panel) (A549 cells [1]; A549): robust DMR signals

CC(=O)c1c(O)c(C)c(O)c(Cc2c(O)c3c(c(C(=O)/C=C/c4ccccc4)c2O)OC(C)(C)C=C3)c1O [rottlerin]
effect on the N-DMR of the EGF DMR signal (in words) (quiescent A431 cells; [4]): part of the early N-DMR event | effect on the early P-DMR event of the EGF DMR signal (in words) (quiescent A431 cells; [4]): specifically caused the truncation

NCCCNCCCCNCCCN [spermine]
ligand-induced DMR signal (GPCR ligand panel) (A549 cells [1]; [3]): robust DMR signals

SFLLR-amide
ligand-induced DMR signal (GPCR ligand panel) (A549 cells [1]; [3]): robust DMR signals

SLIGKV-NH2
ligand-induced DMR signal (GPCR ligand panel) (A549 cells [1]; [3]): robust DMR signals

adrenodullin: adrenodullin receptor agonist (YRQSMNNFQGLRSFGCRFGTCTVQKLAHQIYQFTDKDKDNVAPRSKISPQGY; ends and bridges not checked; cysteine pairing not given here; UniProt P35318 95-146, looked up)
ligand-induced DMR signal (GPCR ligand panel) (A549 cells [1]; [3]): robust DMR signals

angiotensin
ligand-induced DMR signal (GPCR ligand panel) (A549 cells [1]; [3]): robust DMR signals

neuropeptide Y: neuropeptide Y receptor agonist
ligand-induced DMR signal (GPCR ligand panel) (A549 cells [1]; [3]): robust DMR signals

poly(I:C)
ligand-induced DMR signal (second ligand panel) (A549 cells [1]; A549): robust DMR signals
